Measurements published in ChEMBL document CHEMBL4613308, “Screen of Unfocused Libraries Identified Compounds with Direct or Synergistic Antibacterial Activity” (ACS Med Chem Lett, 2020).
In brackets after ≈: the same amount, converted by molar mass.

Assays:
Escherichia coli [1] = assay: Antibacterial activity against Escherichia coli CCUG assessed as bacterial growth inhibition by agar diffusion assay; type: functional
Klebsiella pneumoniae [2] = assay: Antibacterial activity against Klebsiella pneumoniae ATCC 13833 assessed as bacterial growth inhibition by agar diffusion assay; type: functional
Pseudomonas aeruginosa [3] = assay: Antibacterial activity against Pseudomonas aeruginosa ATCC 27853 assessed as bacterial growth inhibition by agar diffusion assay; type: functional
Acinetobacter baumannii [4] = assay: Antibacterial activity against Acinetobacter baumannii ATCC 17978 assessed as bacterial growth inhibition by agar diffusion assay; type: functional
Bacillus spizizenii = assay: Antibacterial activity against Bacillus subtilis ATCC 6633 assessed as bacterial growth inhibition by agar diffusion assay; type: functional
Enterococcus faecalis = assay: Antibacterial activity against Enterococcus faecalis ATCC 29212 assessed as bacterial growth inhibition by agar diffusion assay; type: functional
Staphylococcus aureus = assay: Antibacterial activity against Staphylococcus aureus ATCC 25923 assessed as bacterial growth inhibition by agar diffusion assay; type: functional
Streptococcus pyogenes = assay: Antibacterial activity against Streptococcus pyogenes ATCC 12344 assessed as bacterial growth inhibition by agar diffusion assay; type: functional
Enterobacter cloacae [5] = assay: Antibacterial activity against multidrug-resistant Enterobacter cloacae VA 417/02 clinical isolate assessed as bacterial growth inhibition by agar diffusion assay; type: functional
Enterobacter cloacae [6] = assay: Antibacterial activity against multidrug-resistant Enterobacter cloacae Z19 clinical isolate assessed as bacterial growth inhibition by agar diffusion assay; type: functional
Escherichia coli [7] = assay: Antibacterial activity against multidrug-resistant Escherichia coli Z25 clinical isolate assessed as bacterial growth inhibition by agar diffusion assay; type: functional
Pseudomonas aeruginosa [8] = assay: Antibacterial activity against multidrug-resistant Pseudomonas aeruginosa VR-143/97 clinical isolate assessed as bacterial growth inhibition by agar diffusion assay; type: functional
Acinetobacter baumannii [9] = assay: Antibacterial activity against Acinetobacter baumannii AC-54/97 clinical isolate assessed as bacterial growth inhibition by agar diffusion assay; type: functional
Acinetobacter baumannii [10] = assay: Synergistic antibacterial activity against Acinetobacter baumannii ATCC 17978 in presence of 0.5 times MIC of colistin by microdilution broth method; type: functional
Escherichia coli [11] = assay: Synergistic antibacterial activity against Escherichia coli CCUG in presence of 0.5 times MIC of colistin by microdilution broth method; type: functional
Klebsiella pneumoniae [12] = assay: Synergistic antibacterial activity against Klebsiella pneumoniae ATCC 13833 in presence of 0.5 times MIC of colistin by microdilution broth method; type: functional
Escherichia coli [13] = assay: Synergistic antibacterial activity against Escherichia coli CCUG assessed as fractional inhibitory concentration index in presence of colistin by Checkerboard assay; type: functional
Acinetobacter baumannii [14] = assay: Potentiation of colistin-induced antibacterial activity against Acinetobacter baumannii ATCC 17978 assessed as fold reduction in colistin MIC by microdilution broth method relative to colistin MIC; type: functional
Escherichia coli [15] = assay: Potentiation of colistin-induced antibacterial activity against Escherichia coli CCUG assessed as fold reduction in colistin MIC in by microdilution broth method relative to colistin MIC; type: functional
Klebsiella pneumoniae [16] = assay: Potentiation of colistin-induced antibacterial activity against Klebsiella pneumoniae ATCC 13833 assessed as fold reduction in colistin MIC by microdilution broth method relative to colistin MIC; type: functional
Klebsiella pneumoniae [17] = assay: Synergistic antibacterial activity against colistin-resistant Klebsiella pneumoniae SI-004Bo clinical isolate in presence of 2 ug/ml colistin by microdilution broth method (reference value: 64 ug/ml); type: functional
Klebsiella pneumoniae [18] = assay: Synergistic antibacterial activity against colistin-resistant Klebsiella pneumoniae SI-081R clinical isolate in presence of 2 ug/ml colistin by microdilution broth method (reference value: 256 ug/ml); type: functional
Acinetobacter baumannii [19] = assay: Synergistic antibacterial activity against multidrug-resistant Acinetobacter baumannii N50 in presence of 2 ug/ml colistin by microdilution broth method; type: functional
HeLa = assay: Cytotoxicity against human HeLa cells assessed as reduction in cell viability assay by CellTox-Green assay; type: cell-based
Acinetobacter baumannii [20] = assay: Synergistic antibacterial activity against Acinetobacter baumannii ATCC 17978 assessed as fractional inhibitory concentration index in presence of colistin by Checkerboard assay; type: functional

| Structure (SMILES) | MIC (Escherichia coli [1]) [µg/mL] | MIC (Klebsiella pneumoniae [2]) [µg/mL] | MIC (Pseudomonas aeruginosa [3]) [µg/mL] | MIC (Acinetobacter baumannii [4]) [µg/mL] | MIC (Bacillus spizizenii) [µg/mL] | MIC (Enterococcus faecalis) [µg/mL] | MIC (Staphylococcus aureus) [µg/mL] | MIC (Streptococcus pyogenes) [µg/mL] | MIC (Enterobacter cloacae [5]) [µg/mL] | MIC (Enterobacter cloacae [6]) [µg/mL] | MIC (Escherichia coli [7]) [µg/mL] | MIC (Pseudomonas aeruginosa [8]) [µg/mL] | MIC (Acinetobacter baumannii [9]) [µg/mL] | MIC (Acinetobacter baumannii [10]) [µg/mL] | MIC (Escherichia coli [11]) [µg/mL] | MIC (Klebsiella pneumoniae [12]) [µg/mL] | log2FC (Acinetobacter baumannii [14]) | log2FC (Escherichia coli [15]) | log2FC (Klebsiella pneumoniae [16]) | other results |
| --- | --- | --- | --- | --- | --- | --- | --- | --- | --- | --- | --- | --- | --- | --- | --- | --- | --- | --- | --- | --- |
| CCOC(=O)c1cn2c3c(cccc3c1=O)OCC2CC (centres undefined) | > 256 | 128 (≈ 446 µM) | > 256 | 256 (≈ 891 µM) | 128 (≈ 446 µM) | 256 (≈ 891 µM) | > 256 | > 256 | > 256 | > 256 | > 256 | > 256 | > 256 |  |  |  |  |  |  |  |
| CC(C)(C)n1cc(C(=O)O)c(=O)c2cc(F)c(Sc3ccccc3)cc21 | 16 (≈ 43.1 µM) | 8 (≈ 21.5 µM) | 256 (≈ 689 µM) | 32 (≈ 86.2 µM) | ≤ 0.12 | 2 (≈ 5.38 µM) | 2 (≈ 5.38 µM) | 1 (≈ 2.69 µM) | 16 (≈ 43.1 µM) | 256 (≈ 689 µM) | > 256 | 128 (≈ 345 µM) | > 256 |  |  |  |  |  |  |  |
| COc1ccc(-c2cc3c(cc2F)c(=O)c(C(=O)O)cn3C(C)(C)C)cc1 | > 256 | 16 (≈ 43.3 µM) | > 256 | 16 (≈ 43.3 µM) | ≤ 0.12 | 0.5 (≈ 1.35 µM) | 0.25 (≈ 0.677 µM) | ≤ 0.12 | 128 (≈ 347 µM) | > 256 | > 256 | > 256 | > 256 |  |  |  |  |  |  |  |
| CC(C)(C)n1cc(C(=O)O)c(=O)c2cc(F)c(-c3cccnc3)cc21 | 2 (≈ 5.88 µM) | 0.25 (≈ 0.735 µM) | 4 (≈ 11.8 µM) | 0.5 (≈ 1.47 µM) | ≤ 0.12 | 0.5 (≈ 1.47 µM) | ≤ 0.12 | ≤ 0.12 | 0.5 (≈ 1.47 µM) | 256 (≈ 752 µM) | 256 (≈ 752 µM) | 64 (≈ 188 µM) | 64 (≈ 188 µM) |  |  |  |  |  |  |  |
| COc1ccc(CNC(=O)c2c(O)c3cc(-c4cccnc4)ccc3n(CCCCO)c2=O)cc1 | 64 (≈ 135 µM) | 32 (≈ 67.6 µM) | 256 (≈ 541 µM) | 16 (≈ 33.8 µM) | 0.12 (≈ 0.253 µM) | 16 (≈ 33.8 µM) | 4 (≈ 8.45 µM) | 8 (≈ 16.9 µM) | 64 (≈ 135 µM) | > 256 | > 256 | > 256 | > 256 | 16 | 32 | 64 | 5 | 4 | 3 | fractional inhibitory concentration index (FICI) (Escherichia coli [13]): 0.56 |
| CCCCCc1cc(OC)cc(OCCCCCCCC(=O)NCCO)c1 | > 512 | > 512 | > 512 | > 512 |  |  |  |  |  |  |  |  |  | 4 | 4 | 8 | 7 | 7 | 6 | MIC (Klebsiella pneumoniae [17]): > 64 µg/mL; MIC (Klebsiella pneumoniae [18]): 18 µg/mL; MIC (Acinetobacter baumannii [19]): 8 µg/mL; IC50 (HeLa): > 20 µg/mL |
| Cc1c(C(=O)N(C)CCN(C)C)nn(-c2ccc(Cl)cc2)c1-n1cccc1 | > 512 | > 512 | > 512 | > 512 |  |  |  |  |  |  |  |  |  | 16 | 64 | 32 | 5 | 3 | 4 |  |
| O=C(NCc1ccc2c(c1)OCO2)c1cnn(-c2ccccc2)c1-n1cccc1 | > 512 | > 512 | > 512 | > 512 |  |  |  |  |  |  |  |  |  | 32 | 64 | 64 | 4 | 3 | 3 | fractional inhibitory concentration index (FICI) (Acinetobacter baumannii [20]): 0.38; MIC (Klebsiella pneumoniae [17]): > 64 µg/mL; MIC (Klebsiella pneumoniae [18]): > 64 µg/mL; MIC (Acinetobacter baumannii [19]): 32 µg/mL; IC50 (HeLa): > 60 µg/mL |
| CC(C)(C)n1cc(C(=O)O)c(=O)c2cc(F)c(Br)cc21 | 8 (≈ 23.4 µM) | 1 (≈ 2.92 µM) | 32 (≈ 93.5 µM) | 8 (≈ 23.4 µM) | ≤ 0.12 | 2 (≈ 5.85 µM) | 8 (≈ 23.4 µM) | 8 (≈ 23.4 µM) | 2 (≈ 5.85 µM) | > 256 | > 256 | > 256 | > 256 |  |  |  |  |  |  |  |
| CCCCCCC(C)(C)c1cc(O)cc(OCCCCCCCC(=O)NCCO)c1 | > 512 | > 512 | > 512 | > 512 |  |  |  |  |  |  |  |  |  | 4 | 2 | 4 | 7 | 8 | 7 |  |
